Data on two molecules can be found in PMC7332102, “Ubiquitin activation is essential for schizont maturation in Plasmodium falciparum blood-stage development” (PLoS Pathogens, 2020).

The test concerns the target T1, PfUBA1 (ubiquitin activating enzyme, E1; PF3D7_1225800) (Plasmodium falciparum, UniProt Q8I5F9).
T1 construct: Thr39 to Lys1140, N-terminal His10-tag, insect cells; with ubiquitin (Cy5-labelled, M1C)
Kind of test: Cy5-ubiquitin~E1 thioesterification gel assay with recombinant PfUBA1. The class given is biochemical.

T1 sequence (Q8I5F9 entry or part of it): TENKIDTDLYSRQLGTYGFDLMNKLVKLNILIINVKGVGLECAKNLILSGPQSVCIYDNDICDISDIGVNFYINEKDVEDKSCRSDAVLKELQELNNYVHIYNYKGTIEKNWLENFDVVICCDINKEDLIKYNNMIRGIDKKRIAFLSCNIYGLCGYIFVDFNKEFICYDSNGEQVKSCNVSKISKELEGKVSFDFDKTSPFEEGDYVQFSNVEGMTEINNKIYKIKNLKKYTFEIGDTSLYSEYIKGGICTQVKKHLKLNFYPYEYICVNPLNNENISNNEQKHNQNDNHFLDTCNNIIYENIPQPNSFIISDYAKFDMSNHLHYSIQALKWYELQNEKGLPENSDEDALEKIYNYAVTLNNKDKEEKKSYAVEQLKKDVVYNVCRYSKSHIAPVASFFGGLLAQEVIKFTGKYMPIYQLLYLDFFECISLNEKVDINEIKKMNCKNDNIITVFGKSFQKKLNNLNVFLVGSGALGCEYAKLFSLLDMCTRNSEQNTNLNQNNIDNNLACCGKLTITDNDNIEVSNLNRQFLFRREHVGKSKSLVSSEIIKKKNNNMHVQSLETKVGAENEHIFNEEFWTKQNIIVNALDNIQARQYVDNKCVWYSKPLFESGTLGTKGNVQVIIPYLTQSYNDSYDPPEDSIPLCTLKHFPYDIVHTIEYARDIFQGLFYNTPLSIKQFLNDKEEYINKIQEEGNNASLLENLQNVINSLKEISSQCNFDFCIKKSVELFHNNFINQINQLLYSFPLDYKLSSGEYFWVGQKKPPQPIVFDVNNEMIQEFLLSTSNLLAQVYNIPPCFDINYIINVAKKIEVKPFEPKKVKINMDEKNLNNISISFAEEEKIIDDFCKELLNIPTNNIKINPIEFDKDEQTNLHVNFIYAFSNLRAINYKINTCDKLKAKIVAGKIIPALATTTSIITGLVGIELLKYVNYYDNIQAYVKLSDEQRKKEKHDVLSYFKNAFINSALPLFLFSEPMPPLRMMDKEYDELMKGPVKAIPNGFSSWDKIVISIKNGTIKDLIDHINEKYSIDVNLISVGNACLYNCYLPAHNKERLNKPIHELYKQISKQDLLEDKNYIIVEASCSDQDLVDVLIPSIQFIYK

For `NS(=O)(=O)OC[C@@H]1C[C@@H](n2ccc3c(N[C@H]4CCc5ccccc54)ncnc32)C[C@@H]1O` [MLN4924], the IC50 stood at 47 ± 5 µM.
Consider `NS(=O)(=O)OC[C@H]1C[C@@H](Nc2ccnc3cc(-c4cccc(SC(F)(F)F)c4)nn23)[C@H](O)[C@@H]1O` [MLN7243], for which the IC50 was 1.4 ± 0.2 µM.
